Data reported in US20210186947A1, “TOMM6-INTERACTING EXTRACTS AND COMPOUNDS FOR USE IN THE TREATMENT AND PROPHYLAXIS OF NERVOUS SYSTEM DISEASES, ATHEROSCLEROSIS, HEPATITIS B INFECTION AND HUMAN PAPILLOMA VIRUS (HPV) INFECTION” (ETH ZURICH, priority 2018, published 2021).

Experiments:
[1] = tested on: HBsAg (hepatitis B virus major surface antigen); test: HBsAg aggregation in yeast, immunoblot detection of HBsAg; type: cell-based; details: alizarin 10 microg/ml and 1 microg/ml (FIG. 16D)
Excerpt: Recombinant HBsAg cDNA (synthesized by GeneScript, Piscataway, N.J., USA) was inserted into the expression vector p42K-TEF (D3011001-1 Dualsystems Biotech AG, Zurich). Yeast transformants were selected in the presence of G418 in the yeast growth medium (YPD; Bacto-yeast extract 10 g/L, Bacto-peptone 20 g/L and D-Glucose […]). Yeast (Saccharomyces cerevisae) strain INVSc1 was used (Invitrogen GmbH, Nr. C810-00). After 3-4 days of cultivation to allow for protein expression, yeast cells were harvested by centrifugation, followed by washing with ice-cold PBS. The yeast cell pellet was immediately frozen at −70° C. Proteins were extracted for 30 min. at 4° C. with solubilization buffer (1% sodium deoxycholate, 0.1% SDS, 0.1% NP40, 5 mM EDTA, 50 mM Tris, pH 8.0) supplemented with protease/phosphatase inhibitors (Cat. No. P8349, and/or PPC1010, Sigma-Aldrich, St. Louis, Mo., USA). […] Protein were separated by urea-containing SDS-PAGE (7.5-10%) under reducing conditions, transferred to PVDF membranes by electrophoretic protein transfer in a tank transfer cell (Mini Trans-Blot cell, Bio-Rad GmbH, Munchen, Germany), and transferred HBsAg proteins were detected in immunoblot with HBsAg-specific antibodies raised in rabbit against an N-terminal epitope of HBsAg, or by a monoclonal HBsAg antibody produced in mouse (SAB4700767, Sigma-Aldrich, St. Louis, Mo., USA). […]

[2] = target: T1, Tomm6 (Mus musculus, UniProt Q9CQN3); test: Immunoblot detection of hippocampal Tomm6 protein in treated Tg2576 mice; type: in vivo; details: aged Tg2576 mice treated for 6 months
T1 construct: hippocampi were isolated from 5-10 aged Tg2576 mice, pulverized under liquid nitrogen and solubilized; from tissue; host or cells: hippocampus of Tg2576 mice
T1 sequence (Q9CQN3 1-74): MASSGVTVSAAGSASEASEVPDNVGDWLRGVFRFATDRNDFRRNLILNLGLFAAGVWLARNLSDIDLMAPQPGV

## O=C1c2ccccc2C(=O)c2c1ccc(O)c2O [Compound-1, 1,2-dihydroxyanthraquinone]
[1]
  aggregation and assembly of HBsAg: inhibited the aggregation and assembly of HBsAg
[2]
  hippocampal protein content of Tomm6: substantially increased
